The subject of assay [1] is Rabbit Model of Acute Myocardial Infarction Injury. The assay is described as follows: Rabbit ischemia-reperfusion model, exenatide and potassium canrenoate, infarct size (Example 3). In kind it is in vivo, New Zealand White rabbits. As to conditions: for IF/AAR: mean ± SEM, exenatide 0.15 μg/Kg and/or P. canrenoate 1 mg/Kg IV bolus 15 min before reperfusion, 30 min ischemia, 180 min reperfusion.

For assay [2], the system named is Mouse Model of Acute Myocardial Infarction Injury. The assay is described as follows: Mouse ischemia-reperfusion model, mono-, double and triple therapies, infarct size (Example 5). Type of assay: in vivo, C57BL/6 mice. The note with it: for IF/AAR: mean ± SEM. The procedure:
The test/control articles were given intravenously, under general anaesthesia, in order to mimic the expected route of administration in the clinical setting of acute myocardial infarction and primary percutaneous coronary intervention.
The study followed a predetermined placebo controlled design. […] In all cases, treatments (intravenous bolus administration of saline or test articles or their combinations) were performed 20 min after the onset of ischemia (10 min before the initiation of reperfusion). The experiments were terminated 2 h post-reperfusion (end of study); irreversible myocardial injury (infarct size by histomorphometry) at this time-point was evaluated, and was the primary-end-point of the study.
Mice were anaesthetized by intraperitoneal injection (0.01 ml/Kg) with a combination of ketamine, xylazine and atropine (final doses of ketamine, xylazine and atropine were 100, 20 and 0.6 mg/Kg, respectively). Anaesthetic depth was evaluated by loss of pedal reflex to toe-pinch stimulus and breathing rate. A tracheotomy was performed for artificial respiration at 120-150 breaths/min and positive end-expiratory pressure 2.0 (0.2 ml of total tidal volume; Flexivent rodent ventilator, Scireq, Montreal, ON, Canada). A thoracotomy was then performed between the fourth and fifth ribs and the pericardium carefully retracted to visualize the left anterior descending (LAD), which was ligated using an 8-0 prolene monofilament polypropylene suture placed 1 mm below the tip of the left auricle. […] After the ischemic period, the ligature was released allowing reperfusion of myocardium. Throughout experiments, body temperature was maintained at 37±0.5° C. by way of a heating pad and monitored via a thermocouple inserted rectally.
After reperfusion, animals were sacrificed with an intraperitoneal injection of the ketamine (200 mg/Kg) and xylazine (50 mg/Kg) anesthetic mixture (0.02 ml/Kg) hearts were rapidly excited from mice and directly cannulated and washed with 2.5 ml of saline heparin 1% for blood removal. Five ml of 1% TTC phosphate buffer 37° C. were infused into the coronary circulation; the tissue was incubated for 5 min in the same buffer. Evans Blue 1% diluted in distilled water (2.5 ml) was the infused into the heart. Hearts were kept at −20° C. for 24 hours and then sliced in 1 mm sections parallel to the atrioventricular groove, and then fixed in 4% formalin overnight. […] The areas of myocardial tissue at risk and infarcted were automatically transformed into volumes. Infarct and risk area volumes were expressed in cm^3. For each slide, the AAR was expressed as a percentage of the LV area (AAR/LV), and the IF was expressed as a percentage of the AAR (IF/AAR). In all cases, quantitative histomorphometry was performed by personnel blinded to the treatment assignment/study-design.
All results are presented as mean+SEM. Comparisons of numeric variables among the groups were analyzed using an one-way analysis of variance (ANOVA) model with Bonferroni correction and with Tukey post hoc analysis. […] A calculated P-value of less than 0.05 was considered to be statistically significant.

Where [3] appears, read: exenatide 0.05 μg/Kg, cyclosporine 0.15 mg/Kg, P. canrenoate 1 mg/Kg, alone or in double/triple combination.
Where [4] appears, read: monotherapy doses: exenatide 0.001 μg/Kg, cyclosporine 0.001 mg/Kg, P. canrenoate 0.03 mg/Kg.
[5] abbreviates: monotherapy doses: exenatide 0.005 μg/Kg, cyclosporine 0.01 mg/Kg, P. canrenoate 0.3 mg/Kg.
Setting [6] is: monotherapy doses: exenatide 0.15 μg/Kg, cyclosporine 0.5 mg/Kg, P. canrenoate 10 mg/Kg.

The text below walks through data of patent publication US10172914B2, “Combination” (Genesis Pharma SA, priority 2015, dated 2019).

For the compound `C[C@]12CCC(=O)C=C1C=C[C@@H]1[C@@H]2CC[C@@]2(C)[C@H]1CC[C@@]2(O)CCC(=O)[O-].[K+]` [P. CANRENOATE, potassium 3-[(8R,9S,10R,13S,14S,17R)-17-hydroxy-10,13-dimethyl-3-oxo-2,8,9,11,12,14,15,16 octahydro-1H-cyclopenta[a]phenanthren-17-yl]propanoate], the “reduction of the extent of infarct” value in assay [1] (compared with the control group, exenatide 0.15 μg/Kg and/or potassium canrenoate 1 mg/Kg) is listed as 30.5%. The “Different (%) in IF/AAR from Control” value was −30.5% in assay [1] (exenatide 0.15 μg/Kg and/or P. canrenoate 1 mg/Kg); −30% in assay [2] (setting [3]); −3% in assay [2] (setting [4]); −7.2% in assay [2] (setting [5]); −58.9% in assay [2] (setting [6]). Also, the IF/AAR in assay [1] was 34.36 ± 2.83%; in assay [1] (listed as potassium canrenoate), 34.36±2.83%; in assay [2] (setting [3]) it was 33.2 ± 2.4%; in assay [2] (exenatide 0.05 μg/Kg, cyclosporine 0.15 mg/Kg, P. canrenoate 1 mg/Kg, alone or in double/triple combination, listed as potassium canrenoate) it was 33.2±2.4%; in assay [2] (setting [4]), 46 ± 2.5%; in assay [2] (setting [5]), 44 ± 3.2%. Further, the IF/AAR in assay [2] (setting [6]) is 19.5 ± 2.5%; in assay [2] (monotherapy doses: exenatide 0.15 μg/Kg, cyclosporine 0.5 mg/Kg, P. canrenoate 10 mg/Kg, listed as potassium canrenoate), 19.5±2.5%. Further, in assay [2] (compared with the control group, exenatide 0.05 μg/kg, cyclosporine 0.15 mg/kg, potassium canrenoate 1 mg/kg, alone or combined), the “reduction of infarct size / extent of infarct” value amounted to 30%. Further, in assay [2] (compared with the control group, potassium canrenoate 10 mg/kg monotherapy), the “reduction of infarct size” value worked out at 58.9%.
